Experimental data as given in ChEMBL document CHEMBL1148677, “Identification of small-molecule inhibitors of the Abeta-ABAD interaction” (Bioorg Med Chem Lett, 2006).
Active and inactive are the calls of the source. The rule behind the calls is not given here.

Legend:
[1] = Inhibition of beta amyloid-ABAD interaction by ELISA; design: species or system Homo sapiens
Homo sapiens = organism: Homo sapiens; test: Inhibition of beta amyloid-ABAD interaction by ELISA at 1 mM
[2] = Partition coefficient, log P of the compound; format: physicochemical; conditions: octanol/water

Row | IC50 [1] [µM] | Activity (Homo sapiens) | inhibition (Homo sapiens) [%] | logP [2] | SMILES
1 | 244 | Active |  |  | COC(=O)c1cc(NC(=O)Nc2nc3ccc(OC(F)(F)F)cc3s2)ccc1O
2 | 247 | Active |  |  | O=C(Nc1cccnc1)Nc1nc2ccc(Cl)cc2s1
3 | 257 | Active |  |  | COc1ccc2nc(NC(=O)Nc3cccnc3)sc2c1
4 |  |  | < 50 |  | CCOc1ccc2nc(NC(=O)c3cccc(OC)c3OC)sc2c1
5 |  |  | < 50 |  | O=C(Nc1nc2ccc(O)cc2s1)c1cccc(O)c1O
6 | 190 |  |  |  | COc1ccc2nc(NC(=S)Nc3ccccc3)sc2c1
7 | 185 | Active |  |  | O=C(Nc1ccc(O)c(C(=O)O)c1)Nc1nc2ccc(OC(F)(F)F)cc2s1
8 | 6.46 | Active |  | 1.34 | COC(=O)c1cc(NC(=O)Nc2nc3ccc(Cl)cc3s2)ccc1O
9 | 47.6 | Active |  |  | O=C(Nc1ccc(O)cc1)Nc1nc2ccc(OC(F)(F)F)cc2s1
10 | 200 |  |  |  | COc1ccc2nc(NC(=O)Nc3ccccc3)sc2c1 [FRENTIZOLE]
11 | 207 | Active |  |  | O=C(Nc1nc2ccc(F)cc2s1)Nc1ccccc1O
12 | 26.6 | Active |  |  | COc1ccc2nc(NC(=O)NCc3ccc4c(c3)OCO4)sc2c1
13 | 29 | Active |  |  | O=C(Nc1cc(O)c2cc(S(=O)(=O)O)ccc2c1)Nc1nc2ccc(OC(F)(F)F)cc2s1
14 | 15.6 |  |  |  | COC(=O)c1cc(NC(=S)Nc2nc3ccc(OC)cc3s2)ccc1O
15 | 250 | Active |  |  | COc1ccc2nc(NC(=O)Nc3ccc(N4CCOCC4)cc3)sc2c1
16 |  |  | < 50 |  | O=C(Nc1nc2ccc(F)cc2s1)c1ccccc1
17 |  |  | < 50 |  | CCOc1ccc2nc(NC(=O)c3ccccc3)sc2c1
18 | 26.3 | Active |  |  | COC(=O)c1cc(NC(=O)Nc2nc3ccc(OC)cc3s2)ccc1O
19 | 22.7 | Active |  |  | COC(=O)c1cc(C(=O)O)ccc1NC(=O)Nc1nc2ccc(Cl)cc2s1
20 |  |  | < 50 |  | O=C(Nc1nc2ccc(Cl)cc2s1)c1cccc(O)c1O

Row | IC50 [1] [µM] | Activity (Homo sapiens) | inhibition (Homo sapiens) [%] | logP [2] | SMILES
21 | 282 | Active |  |  | O=C(Nc1cccnc1)Nc1nc2ccc(F)cc2s1
22 | 244 | Active |  |  | O=C(Nc1cccnc1)Nc1nc2ccc(OC(F)(F)F)cc2s1
23 | 261 | Active |  |  | O=C(Nc1ccc(O)c(C(=O)O)c1)Nc1nc2ccc(F)cc2s1
24 | 6.56 | Active |  | 1.15 | COC(=O)c1cc(NC(=O)Nc2nc3ccc(F)cc3s2)ccc1O
25 | 53.8 | Active |  |  | O=C(Nc1nc2ccc(OC(F)(F)F)cc2s1)Nc1ccc(O)cc1O
26 | 286 | Active |  |  | COC(=O)c1ccc(NC(=O)Nc2nc3ccc(F)cc3s2)c(I)c1
27 | 230 |  |  |  | Cc1ccc2c(c1)sc(-c1ccc(N(C)C)cc1)[n+]2C
28 | 163 |  |  |  | COc1ccc2nc(NC(=O)N3CCN(c4ccc5c(c4)OCO5)CC3)sc2c1
29 | 316 | Active |  |  | COc1ccc2nc(NC(=O)NOc3ccccc3)sc2c1
30 |  |  | < 50 |  | COc1cccc(C(=O)Nc2nc3ccc(Cl)cc3s2)c1OC
31 |  |  | < 50 |  | O=C(Nc1nc2ccc(Cl)cc2s1)c1ccccc1
32 | 23 | Active |  |  | O=C(Nc1nc2ccc(Cl)cc2s1)Nc1ccc(O)cc1O
33 | 29.5 | Active |  |  | COc1ccc2nc(NC(=O)Nc3ccc(O)c(C(=O)O)c3)sc2c1
34 | 20.6 | Active |  |  | CCOc1ccc2nc(NC(=O)Nc3ccc(O)c(C(=O)OC)c3)sc2c1
35 | 267 | Active |  |  | O=C(Nc1cc(O)c2cc(S(=O)(=O)O)ccc2c1)Nc1nc2ccc(Cl)cc2s1
36 |  |  | < 50 |  | COc1ccc2nc(NC(=O)c3ccccc3)sc2c1
37 |  |  | < 50 |  | COc1ccc2nc(NC(=O)c3cccc(OC)c3OC)sc2c1
38 |  |  | < 50 |  | O=C(Nc1nc2ccc(F)cc2s1)c1cccc(O)c1O
39 |  |  | < 50 |  | COc1cccc(C(=O)Nc2nc3ccc(F)cc3s2)c1OC
40 | 267 | Active |  |  | O=C(Nc1ccc(C(=O)O)c(O)c1)Nc1nc2ccc(Cl)cc2s1
